Experiment [1] has as its system Streptococcus sp. 'group A'. Put plainly: growth inhibition of control SK(-) GAS strain, dose response, counter-screen for streptokinase expression inhibitor project, luminescence, kanamycin, BacTiterGlo, confirmation (AID 1900). Type of experiment: functional, organism-based.
The subject of experiment [2] is Streptococcus. The experiment in a line: Group A Streptococcus viability loss, dose response, counter-screen for streptokinase expression inhibitor project, luminescence, BacTiterGlo (AID 1915).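 Note: potency for reduction of bacterial viability or growth.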 Type of experiment: functional, organism-based. In general terms: The purpose of a counterscreen is to sort out artefacts and off-target activity.
Experiment [3] concerns the target Latent membrane protein 1 (Human herpesvirus 4 (strain B95-8), UniProt P03230). Put plainly: TES1-eGFP NF-kB reporter inhibition versus Tet-On dsRED, dose response, selectivity assay for LMP1 NF-kB inhibitor project, imaging, HEK293T, dual-color eGFP/dsRED, cherry-picks (AID 588398). Type of experiment: functional, cell-based.
Experiment [4] can be described thus: inhibitors of intracellular T. cruzi replication, confirmation, NIH3T3 host cells, beta-gal luminescence (AID 2044).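 Note: intracellular parasites grown in NIH/3T3 mouse fibroblasts as host cells; luminescent beta-galactosidase reporter signal from transgenic T. cruzi replicating inside host cells; inhibitors lower the luminescence signal.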 Type of experiment: functional, cell-based.
The test system of experiment [5] is HEK293. Put plainly: inhibitors of LMP1-driven NF-kB reporter, dose response, cell-based, HEK293, luciferase, cherry-pick (AID 588343). Type of experiment: functional. Conditions: Homo sapiens.
The target in experiment [6] is T1, Streptokinase A (Streptococcus pyogenes serotype M1, UniProt P10520).
T1 sequence (P10520 whole entry): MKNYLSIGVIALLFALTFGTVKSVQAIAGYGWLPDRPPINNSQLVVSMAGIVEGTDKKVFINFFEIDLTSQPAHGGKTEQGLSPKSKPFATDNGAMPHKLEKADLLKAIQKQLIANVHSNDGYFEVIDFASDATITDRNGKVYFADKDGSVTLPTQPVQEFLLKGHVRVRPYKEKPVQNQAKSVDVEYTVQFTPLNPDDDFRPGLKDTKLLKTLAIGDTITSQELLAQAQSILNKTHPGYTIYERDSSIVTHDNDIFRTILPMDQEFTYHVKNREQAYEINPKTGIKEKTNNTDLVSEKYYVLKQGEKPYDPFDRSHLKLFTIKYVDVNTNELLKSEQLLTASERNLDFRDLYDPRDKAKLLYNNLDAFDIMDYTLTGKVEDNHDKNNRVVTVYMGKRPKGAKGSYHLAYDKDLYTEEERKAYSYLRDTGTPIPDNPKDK
Put plainly: S. pyogenes streptokinase expression inhibitors, potency, dose response, plasminogen activation absorbance, OD405 (AID 1914).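 Note: secreted streptokinase activity via plasminogen activation per viability signal from cell pellet.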 Type of experiment: functional, Streptococcus pyogenes M1 GAS.

The nature of experiment [7]: cytotoxicity toward NIH3T3 fibroblasts, dose response, counter-screen, cell-based, ATP luminescence, mouse fibroblasts (AID 2010).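 Note: cells exposed to compound for about 90 hours before reading.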 Type of experiment: functional.
For experiment [8], the target named is T2, Apoptotic protease-activating factor 1 (Homo sapiens, UniProt O14727).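 Note: caspase-3 cleavage of fluorogenic Rh110 DEVD substrate downstream of apoptosome activation.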
T2 sequence (O14727 whole entry): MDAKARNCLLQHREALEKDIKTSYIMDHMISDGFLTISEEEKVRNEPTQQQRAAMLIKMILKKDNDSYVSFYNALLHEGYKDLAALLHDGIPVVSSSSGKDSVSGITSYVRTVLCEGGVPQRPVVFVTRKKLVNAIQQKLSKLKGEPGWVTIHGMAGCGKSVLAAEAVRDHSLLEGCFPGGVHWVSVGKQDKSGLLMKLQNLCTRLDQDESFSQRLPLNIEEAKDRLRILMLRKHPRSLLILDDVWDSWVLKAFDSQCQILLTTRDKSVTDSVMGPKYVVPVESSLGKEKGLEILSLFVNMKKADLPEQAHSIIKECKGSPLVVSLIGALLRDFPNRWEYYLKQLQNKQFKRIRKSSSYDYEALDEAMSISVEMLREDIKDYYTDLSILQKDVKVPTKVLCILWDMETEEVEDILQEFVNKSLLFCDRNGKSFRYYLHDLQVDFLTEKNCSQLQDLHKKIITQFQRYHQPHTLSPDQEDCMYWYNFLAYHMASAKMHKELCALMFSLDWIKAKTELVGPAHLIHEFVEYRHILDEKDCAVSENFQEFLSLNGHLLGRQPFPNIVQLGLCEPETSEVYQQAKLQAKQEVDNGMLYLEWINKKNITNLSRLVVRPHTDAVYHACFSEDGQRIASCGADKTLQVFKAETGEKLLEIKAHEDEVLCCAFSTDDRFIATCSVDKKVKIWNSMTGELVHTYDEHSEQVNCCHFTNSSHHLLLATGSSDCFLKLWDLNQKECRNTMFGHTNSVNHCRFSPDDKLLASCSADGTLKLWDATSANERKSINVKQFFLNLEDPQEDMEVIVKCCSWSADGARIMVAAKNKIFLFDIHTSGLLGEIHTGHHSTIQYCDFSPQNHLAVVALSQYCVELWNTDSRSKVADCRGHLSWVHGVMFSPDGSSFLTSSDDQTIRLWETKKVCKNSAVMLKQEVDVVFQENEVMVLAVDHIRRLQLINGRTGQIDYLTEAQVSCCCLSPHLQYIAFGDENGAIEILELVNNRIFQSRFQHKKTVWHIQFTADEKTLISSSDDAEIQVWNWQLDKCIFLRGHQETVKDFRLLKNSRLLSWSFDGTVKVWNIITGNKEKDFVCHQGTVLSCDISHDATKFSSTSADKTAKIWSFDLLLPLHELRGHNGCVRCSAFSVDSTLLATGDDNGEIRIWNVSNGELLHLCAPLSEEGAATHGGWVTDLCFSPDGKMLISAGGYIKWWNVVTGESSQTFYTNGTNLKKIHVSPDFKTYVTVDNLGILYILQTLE
The experiment in a line: SAR analysis of small molecule Activators of Apaf-1 in a Fluorescent assay. Type of experiment: functional. The note with it: read-out: EC50_Mean.

In experiment [9] the target is Cell division cycle 7-related protein kinase (Homo sapiens, UniProt O00311). Type of experiment: functional.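 Note: value obtained from a kinome-wide kinase panel.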
Experiment [10] deals with High affinity nerve growth factor receptor (Homo sapiens, UniProt P04629). Type of experiment: functional.
Experiment [11] has as its target Glycogen synthase kinase-3 alpha (Homo sapiens, UniProt P49840). Type of experiment: functional.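 Note: GSK3A result taken from a broad kinome-wide kinase panel.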
For experiment [12], the target named is Serine/threonine-protein kinase MRCK alpha (Homo sapiens, UniProt Q5VT25). Type of experiment: functional.
Experiment [13] addresses Glycogen synthase kinase-3 beta (Homo sapiens, UniProt P49841). Type of experiment: functional.
Experiment [14] relates to BJ. The experiment in a line: cytotoxicity toward BJ-TERT-LT-ST fibroblasts, dose response, cell-based, RAS-independent, luminescence (AID 1935).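 Note: BJ fibroblasts immortalized with TERT plus LT and ST oncogenes.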 Type of experiment: functional. The note with it: Homo sapiens.
The test system of experiment [15] is BJ. The experiment in a line: cytotoxicity toward Ras-transformed BJeLR fibroblasts, dose response, cell-based, alamar blue fluorescence, cherrypicked samples (AID 2631).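 Note: confirmatory dose-response assay in RAS-dependent BJ fibroblasts engineered with TERT, LT and ST, with cytotoxicity read by fluorescence.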 Type of experiment: functional. The note with it: Homo sapiens. (Resazurin is reduced to fluorescent resorufin, in cell work by metabolically active cells.)
For experiment [16], the target named is Nonstructural protein 1 (Influenza A virus, UniProt Q194T2). Type of experiment: functional, Influenza A virus (A/California/07/2009(H1N1)).
Experiment [17] in a line: cytotoxicity toward DRD oncogenic fibroblasts, dose response, cell-based, non-viral oncogenic, luminescence (AID 1934). Type of experiment: functional. Conditions: Homo sapiens.
Experiment [18] relates to Vero. Put plainly: cells. Type of experiment: functional. The note with it: Chlorocebus sabaeus.
Experiment [19] deals with BJ. Put plainly: cells. Type of experiment: functional, cell-based. The note with it: Homo sapiens.
Experiment [20] concerns BJ. The experiment in a line: cytotoxicity toward BJ-TERT fibroblasts, dose response, cell-based, RAS-independent, luminescence (AID 1933). Type of experiment: functional. The note with it: Homo sapiens.

Active and inactive are the calls of the source. Cut-off read from the data, not from the text of the source, for most assays here: actives have a measured EC50 and inactives only a lower limit. A value given as a limit tells only on which side of the number the result lay.

Cell division cycle 7-related protein kinase, sequence (O00311 whole entry): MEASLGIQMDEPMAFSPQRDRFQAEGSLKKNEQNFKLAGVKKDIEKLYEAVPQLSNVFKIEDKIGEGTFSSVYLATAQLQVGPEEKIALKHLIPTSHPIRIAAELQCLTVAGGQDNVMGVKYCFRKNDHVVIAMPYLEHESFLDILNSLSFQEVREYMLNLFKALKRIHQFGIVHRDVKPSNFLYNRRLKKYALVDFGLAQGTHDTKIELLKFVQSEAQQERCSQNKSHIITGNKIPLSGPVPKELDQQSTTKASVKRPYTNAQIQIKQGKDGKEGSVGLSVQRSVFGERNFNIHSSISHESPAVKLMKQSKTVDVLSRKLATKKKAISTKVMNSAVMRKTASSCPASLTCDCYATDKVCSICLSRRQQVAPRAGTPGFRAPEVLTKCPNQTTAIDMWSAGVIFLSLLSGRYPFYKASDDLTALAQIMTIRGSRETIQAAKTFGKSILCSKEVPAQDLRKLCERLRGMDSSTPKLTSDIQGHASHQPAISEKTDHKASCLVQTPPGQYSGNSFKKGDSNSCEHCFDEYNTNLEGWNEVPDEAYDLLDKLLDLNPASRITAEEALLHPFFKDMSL
Latent membrane protein 1, sequence (P03230 whole entry): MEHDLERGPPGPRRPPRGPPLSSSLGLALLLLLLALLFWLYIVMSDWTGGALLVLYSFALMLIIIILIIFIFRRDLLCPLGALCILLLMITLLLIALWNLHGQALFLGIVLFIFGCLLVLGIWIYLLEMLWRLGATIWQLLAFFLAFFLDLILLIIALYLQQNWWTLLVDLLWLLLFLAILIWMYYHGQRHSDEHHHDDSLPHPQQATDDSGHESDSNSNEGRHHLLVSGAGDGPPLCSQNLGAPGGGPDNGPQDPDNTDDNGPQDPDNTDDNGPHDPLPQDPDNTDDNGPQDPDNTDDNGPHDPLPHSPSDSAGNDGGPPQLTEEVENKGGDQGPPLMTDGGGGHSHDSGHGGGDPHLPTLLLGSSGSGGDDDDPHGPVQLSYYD
Glycogen synthase kinase-3 alpha, sequence (P49840 whole entry): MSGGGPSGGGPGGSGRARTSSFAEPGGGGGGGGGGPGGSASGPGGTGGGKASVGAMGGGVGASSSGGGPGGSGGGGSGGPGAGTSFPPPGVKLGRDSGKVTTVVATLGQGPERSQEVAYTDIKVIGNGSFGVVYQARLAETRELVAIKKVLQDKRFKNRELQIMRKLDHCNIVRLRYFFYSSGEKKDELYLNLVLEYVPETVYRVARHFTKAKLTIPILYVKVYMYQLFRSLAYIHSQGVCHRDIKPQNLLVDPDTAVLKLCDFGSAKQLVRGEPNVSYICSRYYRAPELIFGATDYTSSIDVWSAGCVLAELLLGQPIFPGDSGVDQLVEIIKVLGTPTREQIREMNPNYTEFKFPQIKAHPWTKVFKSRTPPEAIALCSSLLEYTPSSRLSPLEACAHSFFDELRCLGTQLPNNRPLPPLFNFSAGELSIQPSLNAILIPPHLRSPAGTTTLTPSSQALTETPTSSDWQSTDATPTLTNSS
Nonstructural protein 1, sequence (Q194T2 whole entry): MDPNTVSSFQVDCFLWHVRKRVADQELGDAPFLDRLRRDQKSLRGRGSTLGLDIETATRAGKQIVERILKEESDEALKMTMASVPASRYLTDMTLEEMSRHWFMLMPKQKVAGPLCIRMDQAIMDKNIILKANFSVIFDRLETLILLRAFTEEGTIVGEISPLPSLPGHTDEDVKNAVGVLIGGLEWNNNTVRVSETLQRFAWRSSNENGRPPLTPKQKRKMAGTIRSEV
High affinity nerve growth factor receptor, sequence (P04629 whole entry): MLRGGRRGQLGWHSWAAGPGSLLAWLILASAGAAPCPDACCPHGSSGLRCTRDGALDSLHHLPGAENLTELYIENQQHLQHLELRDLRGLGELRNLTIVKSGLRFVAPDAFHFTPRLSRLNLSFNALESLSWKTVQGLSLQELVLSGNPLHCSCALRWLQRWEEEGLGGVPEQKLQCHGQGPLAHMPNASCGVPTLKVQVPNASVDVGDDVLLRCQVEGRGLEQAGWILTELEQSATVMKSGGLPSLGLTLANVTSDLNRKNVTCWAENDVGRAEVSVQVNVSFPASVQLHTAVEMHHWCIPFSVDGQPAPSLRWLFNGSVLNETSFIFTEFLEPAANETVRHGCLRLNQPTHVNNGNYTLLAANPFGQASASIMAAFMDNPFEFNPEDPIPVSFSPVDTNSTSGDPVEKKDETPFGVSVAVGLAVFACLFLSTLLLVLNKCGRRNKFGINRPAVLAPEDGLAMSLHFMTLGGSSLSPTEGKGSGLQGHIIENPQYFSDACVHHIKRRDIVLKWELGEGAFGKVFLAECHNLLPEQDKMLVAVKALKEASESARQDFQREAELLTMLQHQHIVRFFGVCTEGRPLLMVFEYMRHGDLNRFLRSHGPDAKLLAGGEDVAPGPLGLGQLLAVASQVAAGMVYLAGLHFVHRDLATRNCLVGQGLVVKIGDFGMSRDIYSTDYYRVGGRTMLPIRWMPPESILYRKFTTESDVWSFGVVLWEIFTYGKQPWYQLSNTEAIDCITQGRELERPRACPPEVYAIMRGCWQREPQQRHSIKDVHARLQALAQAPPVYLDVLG
Glycogen synthase kinase-3 beta, sequence (P49841 whole entry): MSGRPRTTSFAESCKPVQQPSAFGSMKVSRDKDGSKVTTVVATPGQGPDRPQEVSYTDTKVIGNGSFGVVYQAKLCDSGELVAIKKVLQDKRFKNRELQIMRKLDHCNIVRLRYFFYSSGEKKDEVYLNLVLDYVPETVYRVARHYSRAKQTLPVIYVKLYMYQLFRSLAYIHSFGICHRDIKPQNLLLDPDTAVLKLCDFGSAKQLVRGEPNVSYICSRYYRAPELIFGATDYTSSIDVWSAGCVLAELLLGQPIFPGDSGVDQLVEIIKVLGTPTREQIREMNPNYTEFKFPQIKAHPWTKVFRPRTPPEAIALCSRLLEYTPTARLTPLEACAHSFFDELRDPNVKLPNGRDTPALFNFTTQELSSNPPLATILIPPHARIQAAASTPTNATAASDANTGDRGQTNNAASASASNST
Serine/threonine-protein kinase MRCK alpha, sequence (Q5VT25 whole entry): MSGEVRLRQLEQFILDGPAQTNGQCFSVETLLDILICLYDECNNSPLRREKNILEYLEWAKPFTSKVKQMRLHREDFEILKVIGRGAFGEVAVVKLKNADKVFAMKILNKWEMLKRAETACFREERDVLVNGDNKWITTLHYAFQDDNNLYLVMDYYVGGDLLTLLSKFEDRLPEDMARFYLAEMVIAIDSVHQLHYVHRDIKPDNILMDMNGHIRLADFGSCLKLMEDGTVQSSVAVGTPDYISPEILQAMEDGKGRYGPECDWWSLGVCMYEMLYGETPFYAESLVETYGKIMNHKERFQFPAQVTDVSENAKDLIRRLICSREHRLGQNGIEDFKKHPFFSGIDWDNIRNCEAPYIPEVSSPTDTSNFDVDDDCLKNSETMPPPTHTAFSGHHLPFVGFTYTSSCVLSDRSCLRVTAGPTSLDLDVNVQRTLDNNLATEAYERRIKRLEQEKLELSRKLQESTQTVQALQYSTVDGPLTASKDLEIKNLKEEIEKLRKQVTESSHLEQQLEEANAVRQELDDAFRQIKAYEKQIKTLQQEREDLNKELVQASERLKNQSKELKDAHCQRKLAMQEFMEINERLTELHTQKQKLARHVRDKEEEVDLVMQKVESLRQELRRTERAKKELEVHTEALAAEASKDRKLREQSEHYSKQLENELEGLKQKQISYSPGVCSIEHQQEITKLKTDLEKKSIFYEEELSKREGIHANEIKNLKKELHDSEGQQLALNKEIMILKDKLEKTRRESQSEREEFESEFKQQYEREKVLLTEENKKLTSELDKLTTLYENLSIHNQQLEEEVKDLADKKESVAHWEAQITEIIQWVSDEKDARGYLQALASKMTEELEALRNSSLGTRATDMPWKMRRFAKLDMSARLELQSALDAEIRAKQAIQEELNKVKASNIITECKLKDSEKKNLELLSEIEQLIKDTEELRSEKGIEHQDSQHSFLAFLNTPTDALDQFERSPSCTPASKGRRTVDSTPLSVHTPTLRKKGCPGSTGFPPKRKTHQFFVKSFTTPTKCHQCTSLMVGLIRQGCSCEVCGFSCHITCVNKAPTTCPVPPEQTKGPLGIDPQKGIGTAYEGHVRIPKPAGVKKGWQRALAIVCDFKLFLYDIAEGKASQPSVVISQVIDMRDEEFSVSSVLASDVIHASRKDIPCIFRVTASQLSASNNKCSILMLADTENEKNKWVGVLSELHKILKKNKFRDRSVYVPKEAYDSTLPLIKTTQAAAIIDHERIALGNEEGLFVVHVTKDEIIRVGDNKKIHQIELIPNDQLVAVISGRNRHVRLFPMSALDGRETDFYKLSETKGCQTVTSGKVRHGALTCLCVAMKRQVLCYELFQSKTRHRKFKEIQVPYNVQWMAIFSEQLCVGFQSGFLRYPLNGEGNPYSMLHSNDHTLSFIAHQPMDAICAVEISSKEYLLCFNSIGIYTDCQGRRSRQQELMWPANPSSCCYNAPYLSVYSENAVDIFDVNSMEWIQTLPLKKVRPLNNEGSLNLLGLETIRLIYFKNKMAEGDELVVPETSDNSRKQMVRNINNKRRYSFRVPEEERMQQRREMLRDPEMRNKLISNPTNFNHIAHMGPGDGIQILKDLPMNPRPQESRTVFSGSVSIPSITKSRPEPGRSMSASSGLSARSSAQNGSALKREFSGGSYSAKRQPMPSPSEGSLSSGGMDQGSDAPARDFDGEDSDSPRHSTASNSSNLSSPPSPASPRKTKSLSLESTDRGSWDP

On to `CCCc1ccc(-c2cc(C(=O)N/N=C/c3ccc([N+](=O)[O-])o3)c3ccccc3n2)cc1`, for which the EC50 in experiment [1] was 2.75 µM (active); in experiment [2] it was 2.59 µM (active); in [4], 194 nM (active); in experiment [6] it was > 150 µM (not active); in experiment [7] it was 8.91 µM (active). Further, the results for the AC50 in experiment [3] and in [5] were 112 µM (active) and 2.89 µM (active), respectively.

Take `COC(=O)[C@@H]1COC(c2ccc(OC)c(C(F)(F)F)c2)=N1`: in experiment [8], the EC50 is > 100 µM (inactive).

For `NC(=O)c1ccc(-c2c[nH]c3nc(N)nc(NCc4c(F)cccc4F)c23)cc1`, the Ki (commonly a measure of affinity in units of concentration, obtained from inhibition or displacement) in [9] was 100 nM (active); in experiment [10], 2.51 µM (active).

Turning to `CC(=O)Nc1nonc1-n1nnc(C(=O)NN=Cc2cccs2)c1-c1ccccc1`, the Ki was 3.16 µM (active) in [11], 10 µM (active) in experiment [12] and 6.31 µM (active) in experiment [13].

As to `C/C(=N\NC(=O)c1cccc2ccccc12)c1ccccn1`, the EC50 in [14] is 3.87 µM (active); in [1], 2.88 µM (active); in experiment [15], 497 nM (inconclusive); in experiment [2], 6.39 µM (active); in [17] it was 2.4 µM (active); in [19] it was 3.45 µM (active). In addition, the EC50 in [20] is 5.73 µM (active). The IC50 (in general, the concentration at which inhibition is half-maximal) in [16] is 7.25 µM (active). Moreover, the cytotoxic concentration (CC50) (commonly the concentration that lowers cell viability or growth by half) in experiment [18] was 3.56 µM (active).

The values above are taken from ChEMBL document CHEMBL1201862, “PubChem BioAssay data set” (2004).
